Patent publication US20120149576A1, “METHOD FOR CULTIVATING CROP PLANT” (SUMITOMO CHEMICAL COMPANY, LIMITED, priority 2009, published 2012)

What was measured:
[1] = system: recombinant tobacco line P023 leaf discs; assay: Resistance test using leaf discs on MS agar medium supplemented with saflufenacil; type: cell-based; conditions: for Score of adverse effects (browning or chlorosis) on leaf disc / Ratio of green area to leaf disc area (%): P023; for Score of adverse effects (browning or chlorosis) on leaf disc / Observed adverse effect on leaf discs: day 8; for Score of adverse effects (browning or chlorosis) on leaf disc: 5 plants; for Ratio of green area to leaf disc area (%): image analysis of FIG. 1, day 8; for Observed adverse effect on leaf discs: recombinant tobacco line P023
Protocol: : DNA encoding the amino acid sequence of SEQ ID NO:3; Homozygote seeds of the recombinant tobacco lines 1609soy#25 and […], which are described in EP1598423, and progeny seeds of the recombinant tobacco line P-6-1, which is also described in EP1598423, were aseptically sown on MS agar medium supplemented with 100 mg/L kanamycin and screened for plants with […] resistance. Leaf discs were prepared by cutting true leaves of the selected plants at 1 month after sowing, and placed on MS agar medium supplemented with 0.01 ppm, 0.03 ppm or 0.10 ppm saflufenacil. As negative control, seeds of wild-type SR-1 tobacco plants were aseptically sown on MS agar medium and, similarly, leaf discs were prepared by cutting true leaves of the plants at 1 month after sowing, and placed on MS agar medium supplemented with 0.01 ppm, 0.03 ppm or 0.10 ppm saflufenacil. […] The leaf discs were prepared from 5 individual plants for each experimental plot. Scoring evaluation was conducted according to the degrees of adverse effects manifested as browning or chlorosis. The scoring criteria are as follows: In the photograph shown in FIG. 1, the green-colored portions were color extracted using the image analysis software “Win ROOF ver.6.1.0” (MITANI Corporation) and their area was quantified. This was then divided by the area calculated by subtracting the area of the medium from the entire area of the image, thereby calculating the percentage of the area of the green-colored portions to the area of the leaf disc.

[2] = system: recombinant tobacco lines 1609soy#17 and #25, 1584soy#16, P023, and 35S-2; assay: Resistance test using a spreader: tobacco; type: in vivo; conditions: spray application with automatic spreader; about two weeks later; homozygotes of 1609soy#17, #25, 1584soy#16, P023, 35S-2
Description: Homozygote seeds of the recombinant tobacco lines 1609soy#17 and #25, 1584soy#16, […], and 35S-2, which are described in EP1598423, are aseptically sown on MS agar medium. Subsequently, the germinated individuals are transferred to culture pots charged with Kureha soil (Kureha Chemicals) and acclimated to the outdoor environment in the phytotron. They are than grown for two weeks in the phytotron. As negative control, seeds of wild-type SR-1 tobacco plants are aseptically sown on MS agar medium and, similarly grown in the phytotron. The plants thus obtained are subjected to the saflufenacil application test. The spray solution is prepared by dissolving saflufenacil in an appropriate solvent, adding an adjuvant, and diluting it with water. Application of the spray solution to the plants are conducted using an wheeled automatic spreader (Mamba Architect Office), by homogenously spraying 20 mL of the solution onto the seedlings of the recombinant and wild-type tobacco plants placed within a 0.9 square-meter area to which the solution is applied. About two weeks later, the susceptibility of the tested recombinant tobacco plants to saflufenacil is compared with that of the wild-type SR-1 tobacco plants to saflufenacil. […] Scoring evaluation is conducted according to the degrees of adverse effects manifested as death of individual plants, or browning or chlorosis of the leaves or stems.

[3] = system: recombinant tobacco line 1609soy#25 leaf discs; assay: Resistance test using leaf discs on MS agar medium supplemented with saflufenacil; type: cell-based; conditions: for Score of adverse effects (browning or chlorosis) on leaf disc / Ratio of green area to leaf disc area (%): 1609soy#25; for Score of adverse effects (browning or chlorosis) on leaf disc / Observed adverse effect on leaf discs: day 8; for Score of adverse effects (browning or chlorosis) on leaf disc: 5 plants; for Ratio of green area to leaf disc area (%): image analysis of FIG. 1, day 8; for Observed adverse effect on leaf discs: recombinant tobacco line 1609soy#25
Protocol: 1609soy#25: DNA encoding the amino acid sequence of SEQ ID NO:1;
(§1) Homozygote seeds of the recombinant tobacco lines 1609soy#25 and P023, which are described in EP1598423, and progeny seeds of the recombinant tobacco line P-6-1, which is also described in EP1598423, were aseptically sown on MS agar medium supplemented with 100 mg/L kanamycin and screened for plants with kanamaycin resistance. Leaf discs were prepared by cutting true leaves of the selected plants at 1 month after sowing, and placed on MS agar medium supplemented with 0.01 ppm, 0.03 ppm or 0.10 ppm saflufenacil. As negative control, seeds of wild-type SR-1 tobacco plants were aseptically sown on MS agar medium and, similarly, leaf discs were prepared by cutting true leaves of the plants at 1 month after sowing, and placed on MS agar medium supplemented with 0.01 ppm, 0.03 ppm or 0.10 ppm saflufenacil.
(§2) The leaf discs were prepared from 5 individual plants for each experimental plot. Scoring evaluation was conducted according to the degrees of adverse effects manifested as browning or chlorosis. The scoring criteria are as follows:
(§3) In the photograph shown in FIG. 1, the green-colored portions were color extracted using the image analysis software “Win ROOF ver.6.1.0” (MITANI Corporation) and their area was quantified. This was then divided by the area calculated by subtracting the area of the medium from the entire area of the image, thereby calculating the percentage of the area of the green-colored portions to the area of the leaf disc.

[4] = system: recombinant soybean lines J16, J18, J26 and J28; assay: Resistance test using a spreader: soybean; type: in vivo; conditions: spray application as in Example 2, about two weeks later
Protocol: Seeds of the T2 generation of the recombinant soybean lines J16, […], J26 and J28, which are described in US20060009361, are aseptically sown in the culture pots charged with Kureha soil and grown for about 3 weeks in the phytotron. As negative control, seeds of a wild-type soybean (cv. Jack) are similarly grown in the phytotron. The plants thus obtained are subjected to the saflufenacil application test. The application test is conducted according to the method described above in Example 2. About two weeks later, the susceptibility of the tested recombinant soybean plants to saflufenacil is compared with that of the wild-type soybean plants (cv. Jack) to saflufenacil.

[5] = system: recombinant tobacco line P-6-1 (progeny) leaf discs; assay: Resistance test using leaf discs on MS agar medium supplemented with saflufenacil; type: cell-based; conditions: for Score of adverse effects (browning or chlorosis) on leaf disc / Ratio of green area to leaf disc area (%): P-6-1; for Score of adverse effects (browning or chlorosis) on leaf disc: 5 plants; for Ratio of green area to leaf disc area (%): image analysis of FIG. 1, day 8
Protocol: P-6-1; DNA encoding the amino acid sequence of SEQ ID NO:1 and DNA encoding the amino acid sequence of SEQ ID NO:3;
as §1, §2, §3

[6] = system: wild-type SR-1 tobacco leaf discs; assay: as above; type: cell-based; conditions: for Score of adverse effects (browning or chlorosis) on leaf disc / Ratio of green area to leaf disc area (%): Wild-type SR-1; for Score of adverse effects (browning or chlorosis) on leaf disc / Observed adverse effect on leaf discs: day 8; for Score of adverse effects (browning or chlorosis) on leaf disc: 5 plants; for Ratio of green area to leaf disc area (%): image analysis of FIG. 1, day 8; for Observed adverse effect on leaf discs: wild-type SR-1 tobacco leaves
Protocol: as §1, §2, §3

SMILES: CC(C)N(C)S(=O)(=O)NC(=O)c1cc(-n2c(=O)cc(C(F)(F)F)n(C)c2=O)c(F)cc1Cl [Saflufenacil, N′-{2-chloro-4-fluoro-5-[1,2,3,6-tetrahydro-3-methyl-2,6-dioxo-4-(trifluoromethyl)pyrimidine-1-yl]benzoyl}-N-isopropyl-N-methyl sulfamide]
- Score of adverse effects (browning or chlorosis) on leaf disc ([1]; saflufenacil 0.01 ppm): 3.0
- Ratio of green area to leaf disc area (%) ([1]; saflufenacil 0.01 ppm): 89%
- Score of adverse effects (browning or chlorosis) on leaf disc ([1]; saflufenacil 0.03 ppm): 3.0
- Ratio of green area to leaf disc area (%) ([1]; saflufenacil 0.03 ppm): 86%
- Score of adverse effects (browning or chlorosis) on leaf disc ([1]; saflufenacil 0.10 ppm): 2.0
- Ratio of green area to leaf disc area (%) ([1]; saflufenacil 0.10 ppm): 51%
- Observed adverse effect on leaf discs ([1]; 0.10 ppm): partial chlorosis
- Observed adverse effect on leaf discs ([1]; up to 0.03 ppm): no adverse effect
- Susceptibility of recombinant tobacco plants to saflufenacil compared with wild-type SR-1 [2]: lower susceptibility
- Score of adverse effects (browning or chlorosis) on leaf disc ([3]; saflufenacil 0.01 ppm): 3.0
- Ratio of green area to leaf disc area (%) ([3]; saflufenacil 0.01 ppm): 85%
- Score of adverse effects (browning or chlorosis) on leaf disc ([3]; saflufenacil 0.03 ppm): 2.0
- Ratio of green area to leaf disc area (%) ([3]; saflufenacil 0.03 ppm): 80%
- Score of adverse effects (browning or chlorosis) on leaf disc ([3]; saflufenacil 0.10 ppm): 1.0
- Ratio of green area to leaf disc area (%) ([3]; saflufenacil 0.10 ppm): 8%
- Observed adverse effect on leaf discs ([3]; 0.01 ppm): no adverse effect
- Observed adverse effect on leaf discs ([3]; 0.03 ppm): partial browning
- Observed adverse effect on leaf discs ([3]; 0.10 ppm): overall browning
- Susceptibility of recombinant soybean plants to saflufenacil compared with wild-type soybean (cv. Jack) [4]: lower susceptibility
- Score of adverse effects (browning or chlorosis) on leaf disc ([5]; saflufenacil 0.01 ppm, day 8): 3.0
- Ratio of green area to leaf disc area (%) ([5]; saflufenacil 0.01 ppm): 87%
- Score of adverse effects (browning or chlorosis) on leaf disc ([5]; saflufenacil 0.03 ppm, day 8): 2.6
- Ratio of green area to leaf disc area (%) ([5]; saflufenacil 0.03 ppm): 78%
- Score of adverse effects (browning or chlorosis) on leaf disc ([5]; saflufenacil 0.10 ppm, day 8): 3.0
- Ratio of green area to leaf disc area (%) ([5]; saflufenacil 0.10 ppm): 83%
- Observed adverse effect on leaf discs ([5]; progeny plants of recombinant tobacco line P-6-1, 0.10 ppm, day 8): no adverse effect
- Score of adverse effects (browning or chlorosis) on leaf disc ([6]; saflufenacil 0.01 ppm): 2.0
- Ratio of green area to leaf disc area (%) ([6]; saflufenacil 0.01 ppm): 77%
- Score of adverse effects (browning or chlorosis) on leaf disc ([6]; saflufenacil 0.03 ppm): 1.0
- Ratio of green area to leaf disc area (%) ([6]; saflufenacil 0.03 ppm): 20%
- Score of adverse effects (browning or chlorosis) on leaf disc ([6]; saflufenacil 0.10 ppm): 0.2
- Ratio of green area to leaf disc area (%) ([6]; saflufenacil 0.10 ppm): 2%
- Observed adverse effect on leaf discs ([6]; 0.01 ppm): partial browning
- Observed adverse effect on leaf discs ([6]; 0.10 ppm): overall chlorosis
